In general, IC50 refers to the concentration that gives 50% inhibition.

Series [1] has as its system B16-F10 melanoma tumors. In words: B16-F10 syngeneic mouse tumor model. The series is classed as in vivo, C57BL/6 mice. Conditions: CST 10 mg/kg i.p. three times per week, tumor-bearing mice, n=9. As to the method:
Age-matched male and female C57BL/6 mice (7–9 weeks, n = 9) were subcutaneously injected with 5 × 10^4 B16-F10 cells in 100 μL PBS. […] Tumor dimensions were measured with calipers, and volume was calculated using the formula V = (length × width^2)/2. Mice were euthanized 22 days post-inoculation. All procedures were approved by the IACUC of UCSD and the VA San Diego Healthcare System and conformed to NIH guidelines.
Tumors were fixed, paraffin-embedded, and sectioned (5 μm). Hematoxylin and eosin staining was performed at the La Jolla Institute for Immunology. Immunohistochemistry was carried out using the Super Sensitive™ M Polymer-HRP Kit (Biogenex). After deparaffinization, antigen retrieval was performed using Histo VT (Nacalai) at 90°C for 20 min. Sections were incubated overnight at 4°C with anti–Ki-67 (Abcam) or anti-CST (gift from Angelo Corti) at 1:100 dilution. Detection was performed with DAB and counterstained with hematoxylin. Slides were dehydrated and mounted in DPX. […]
Apoptotic nuclei were detected in tumor sections using the CF®594 TUNEL Assay Kit (Biotium). […] Fluorescence images were obtained using a Keyence microscope.
Tumor lysates were prepared in RIPA buffer containing protease inhibitors (Thermo Fisher). […] HRP-conjugated secondary antibodies (Cell Signaling Technology) were used, and signals were detected by chemiluminescence. […]

The nature of series [2]: In vivo plasma pharmacokinetics. The conditions noted are these: ip, male C57BL/6 mouse, 5mg/kg intraperitoneal, LC-MS/MS. As to the method:
Blood samples (100 μl) were obtained at 0, 0.25, 0.5, 1, 2, 4, 8, and 24 hours via tail vein bleeds.

The test system of series [3] is Vemurafenib-resistant A375 cell line. Kind of series: Cell viability assay, Vemurafenib-resistant A375 cells. The series is classed as cell-based, human. As to the method:
(§1) Viability was determined using the CCK-8 reagent (APExBIO). Absorbance was measured at 450 nm using a Varioskan LUX reader.
(§2) Vemurafenib-resistant A375 cells were generated following established protocol. Parental cells were treated with 100 nM Vemurafenib for 2 weeks, followed by stepwise doubling of drug concentration every 2 weeks up to 3.2 μM. Surviving cells in maintenance culture containing 2 μM drug was used for downstream studies.

The subject of series [4] is Vemurafenib-sensitive A375 cell line. In words: Cell viability assay, Vemurafenib-sensitive (parental) A375 cells. The series is classed as cell-based. Conditions: Homo sapiens, A-375. The protocol: as §1, §2

Structures are written as SMILES. Peptide text beside a SMILES is read from it. A value given as a limit tells only on which side of the number the result lay.

For `CSCC[C@H](NC(=O)[C@H](CO)NC(=O)[C@@H](N)CO)C(=O)N[C@@H](CCCCN)C(=O)N[C@@H](CC(C)C)C(=O)N[C@@H](CO)C(=O)N[C@@H](Cc1ccccc1)C(=O)N[C@@H](CCCNC(=N)N)C(=O)N[C@@H](C)C(=O)N[C@@H](CCCNC(=N)N)C(=O)N[C@@H](C)C(=O)N[C@@H](Cc1ccc(O)cc1)C(=O)NCC(=O)N[C@@H](Cc1ccccc1)C(=O)N[C@@H](CCCNC(=N)N)C(=O)NCC(=O)N1CCC[C@H]1C(=O)NCC(=O)N1CCC[C@H]1C(=O)N[C@@H](CCC(N)=O)C(=O)N[C@@H](CC(C)C)C(=O)O` [CST, Catestatin] (H-SSMKLSFRARAYGFRGPGPQL-OH), the “body weight and liver histology” value in series [1] is “No major changes in body weight or liver histology”. Besides, the half-life in series [2] (read-out: t1/2 (half-life) (converted)) is 1.38 h. Also, the Cmax in series [2] (tail vein bleeds 0-24 hours, read-out: Cmax (maximum concentration)) was found to be 148 ng/mL.

In the case of `CCCS(=O)(=O)Nc1ccc(F)c(C(=O)c2c[nH]c3ncc(-c4ccc(Cl)cc4)cc23)c1F` [Vemurafenib], the half-maximal inhibitory concentration (IC50) in series [3] (Homo sapiens, vemurafenib-resistant A-375, Vemurafenib-resistant A375 cells) amounted to 1430 nM; in series [4], 229 nM. For the same compound, the “fold increase of IC50, resistant versus parental A375 cells” value in series [3] (resistant vs parental A375) is greater than 6 fold.

The record behind these values is publication doi:10.1101/2025.10.22.684062 (bioRxiv, 2025).
